Laboratory results reported in patent publication US20240132484A1, “BROAD SPECTRUM ANTIVIRAL COMPOUNDS TARGETING THE SKI COMPLEX” (priority 2020, published 2024).
Where “and” joins values, the source holds several entries; their conditions need not be identical. Identical values can stand only once. Like-named read-outs stand apart in the source and are kept apart here.

Assays:
cells (nuclei count) = conditions: for Relative cell count to DMSO controls, Average 1 μM / Relative cell count to DMSO controls, Average 5 μM / Relative cell count to DMSO controls, Average 10 μM / Relative cell count to DMSO controls, Average 25 μM / Relative cell count to DMSO controls, Average 50 μM: toxicity data, 100=DMSO control; for Relative cell count to DMSO controls, Average (for correlation analysis): average value over the 5 tested concentrations (1 to 50 uM)
SARS2 = assay type: cell-based, SARS-CoV-2; conditions: for Percentage Infection Relative to Appropriate DMSO Control: avg background subtraction; for Percentage Inhibition Average 1 μM / Screening data (Relative infection to DMSO controls) Average 1 μM: SARS2, 1 μM; for Screening data (Relative infection to DMSO controls) Average 1 μM / Screening data (Relative infection to DMSO controls) Average 5 μM / Screening data (Relative infection to DMSO controls) Average 10 μM / Screening data (Relative infection to DMSO controls) Average 25 μM / Screening data (Relative infection to DMSO controls) Average 50 μM / Average (relative infection to DMSO over the 5 tested concentrations): 100=DMSO control; for Percentage Inhibition Average 5 μM / Screening data (Relative infection to DMSO controls) Average 5 μM: SARS2, 5 μM; for Percentage Inhibition Average 10 μM / Screening data (Relative infection to DMSO controls) Average 10 μM: SARS2, 10 μM; for Percentage Inhibition Average 25 μM / Screening data (Relative infection to DMSO controls) Average 25 μM: SARS2, 25 μM; for Percentage Inhibition Average 50 μM / Screening data (Relative infection to DMSO controls) Average 50 μM: SARS2, 50 μM; for Average (relative infection to DMSO over the 5 tested concentrations): SARS2, average over 1 to 50 uM; for Percentage Infection Relative to Appropriate DMSO Control with Avg Background Subtraction: single well

CCOc1cccc(CNCCc2ccccc2F)c1OCC(O)CN1CCN(C)CC1 (stereo not drawn) [SILCS3]
Relative cell count to DMSO controls, Average 1 μM (cells (nuclei count)): 114.7 | Relative cell count to DMSO controls, Average 5 μM (cells (nuclei count)): 125.56 | Relative cell count to DMSO controls, Average 10 μM (cells (nuclei count)): 124.47 | Relative cell count to DMSO controls, Average 25 μM (cells (nuclei count)): 117.43 | Relative cell count to DMSO controls, Average 50 μM (cells (nuclei count)): 86.97 | Toxicity Data, Average, Mean (cells (nuclei count); Average of Exp 1-3, n 9, 1 uM): 114.70% | Toxicity Data, Average, Mean (cells (nuclei count); Average of Exp 1-3, n 9, 5 uM): 125.56% | Toxicity Data, Average, Mean (cells (nuclei count); Average of Exp 1-3, n 9, 10 uM): 124.47% | Toxicity Data, Average, Mean (cells (nuclei count); Average of Exp 1-3, n 9, 25 uM): 117.43% | Toxicity Data, Average, Mean (cells (nuclei count); Average of Exp 1-3, n 9, 50 uM): 86.97% | Toxicity Data, nuclei count relative to DMSO controls (cells (nuclei count); Exp 1 (SMW454), 1 uM): 108.7% and 108.1% and 97.2% | Toxicity Data, nuclei count relative to DMSO controls (cells (nuclei count); Exp 1 (SMW454), 5 uM): 105.8% and 104.1% and 93.5% | Toxicity Data, nuclei count relative to DMSO controls (cells (nuclei count); Exp 1 (SMW454), 10 uM): 112.5% and 109.3% and 98.7% | Toxicity Data, nuclei count relative to DMSO controls (cells (nuclei count); Exp 1 (SMW454), 25 uM): 102.5% and 101.9% and 95.9% | Toxicity Data, nuclei count relative to DMSO controls (cells (nuclei count); Exp 1 (SMW454), 50 uM): 93.7% and 93.9% and 95.7% | Toxicity Data, nuclei count relative to DMSO controls (cells (nuclei count); Exp 2 (SMW466), 1 uM): 110.2% and 122.4% and 99.6% | Toxicity Data, nuclei count relative to DMSO controls (cells (nuclei count); Exp 2 (SMW466), 5 uM): 143.6% and 141.9% and 102.7% | Toxicity Data, nuclei count relative to DMSO controls (cells (nuclei count); Exp 2 (SMW466), 10 uM): 139.8% and 146.3% and 105.1% | Toxicity Data, nuclei count relative to DMSO controls (cells (nuclei count); Exp 2 (SMW466), 25 uM): 131.0% and 122.3% and 75.1% | Toxicity Data, nuclei count relative to DMSO controls (cells (nuclei count); Exp 2 (SMW466), 50 uM): 81.8% and 76.6% and 53.5% | Toxicity Data, nuclei count relative to DMSO controls (cells (nuclei count); Exp 3 (SMW480), 1 uM): 131.1% and 136.5% and 118.6% | Toxicity Data, nuclei count relative to DMSO controls (cells (nuclei count); Exp 3 (SMW480), 5 uM): 154.5% and 147.8% and 136.1% | Toxicity Data, nuclei count relative to DMSO controls (cells (nuclei count); Exp 3 (SMW480), 10 uM): 156.3% and 129.5% and 122.8% | Toxicity Data, nuclei count relative to DMSO controls (cells (nuclei count); Exp 3 (SMW480), 25 uM): 157.9% and 155.8% and 114.5% | Toxicity Data, nuclei count relative to DMSO controls (cells (nuclei count); Exp 3 (SMW480), 50 uM): 117.7% and 89.8% and 80.0% | Relative cell count to DMSO controls, Average (for correlation analysis) (cells (nuclei count)): 113.83 | Percentage Infection Relative to Appropriate DMSO Control (SARS2; 1 uM, Exp 1 (SMW454), single wells): 102.18% and 96.08% and 79.31% | Percentage Infection Relative to Appropriate DMSO Control (SARS2; 5 uM, Exp 1 (SMW454), single wells): 110.38% and 99.87% and 94.40% | Percentage Infection Relative to Appropriate DMSO Control (SARS2; 10 uM, Exp 1 (SMW454), single wells): 98.93% and 87.99% and 82.55% | Percentage Infection Relative to Appropriate DMSO Control (SARS2; 25 uM, Exp 1 (SMW454), single wells): 73.36% and 69.10% and 58.07% | Percentage Infection Relative to Appropriate DMSO Control (SARS2; 50 uM, Exp 1 (SMW454), single wells): 38.76% and 39.55% and 35.10% | Infection Data, Average, Mean (SARS2; Average of Exp 1-3, n 9, 1 uM): 77.07% | Infection Data, Average, Mean (SARS2; Average of Exp 1-3, n 9, 5 uM): 48.45% | Infection Data, Average, Mean (SARS2; Average of Exp 1-3, n 9, 10 uM): 46.02% | Infection Data, Average, Mean (SARS2; Average of Exp 1-3, n 9, 25 uM): 22.24% | Infection Data, Average, Mean (SARS2; Average of Exp 1-3, n 9, 50 uM): 12.53% | Percentage Infection Relative to Appropriate DMSO Control (SARS2; Exp 2 (SMW466), 1 uM): 97.83% and 85.97% and 85.21% | Percentage Infection Relative to Appropriate DMSO Control (SARS2; Exp 2 (SMW466), 5 uM): 25.85% and 18.37% and 25.06% | Percentage Infection Relative to Appropriate DMSO Control (SARS2; Exp 2 (SMW466), 10 uM): 15.71% and 12.38% and 8.39% | Percentage Infection Relative to Appropriate DMSO Control (SARS2; Exp 2 (SMW466), 25 uM): −2.25% and −2.53% and 0.99% | Percentage Infection Relative to Appropriate DMSO Control (SARS2; Exp 2 (SMW466), 50 uM): −2.52% and −3.00% and 0.03% | Percentage Infection Relative to Appropriate DMSO Control (SARS2; Exp 3 (SMW480), 1 uM): 55.68% and 51.29% and 40.12% | Percentage Infection Relative to Appropriate DMSO Control (SARS2; Exp 3 (SMW480), 25 uM): 6.43% and −0.12% and −2.91% | Percentage Inhibition Average 1 μM (SARS2): 22.93% | Screening data (Relative infection to DMSO controls) Average 1 μM (SARS2): 77.07 | Percentage Inhibition Average 5 μM (SARS2): 51.55% | Screening data (Relative infection to DMSO controls) Average 5 μM (SARS2): 48.45 | Percentage Inhibition Average 10 μM (SARS2): 53.98% | Screening data (Relative infection to DMSO controls) Average 10 μM (SARS2): 46.02 | Percentage Inhibition Average 25 μM (SARS2): 77.76% | Screening data (Relative infection to DMSO controls) Average 25 μM (SARS2): 22.24 | Percentage Inhibition Average 50 μM (SARS2): 87.47% | Screening data (Relative infection to DMSO controls) Average 50 μM (SARS2): 12.53 | Average (relative infection to DMSO over the 5 tested concentrations) (SARS2): 41.26

Cc1cc(CN(CCN(C)C)Cc2ccsc2)oc1C [SILCS27]
Relative cell count to DMSO controls, Average 1 μM (cells (nuclei count)): 109.07 | Relative cell count to DMSO controls, Average 5 μM (cells (nuclei count)): 120.66 | Relative cell count to DMSO controls, Average 10 μM (cells (nuclei count)): 120.18 | Relative cell count to DMSO controls, Average 25 μM (cells (nuclei count)): 103.23 | Relative cell count to DMSO controls, Average 50 μM (cells (nuclei count)): 86.33 | Toxicity Data, Average, Mean (cells (nuclei count); Average of Exp 1-3, n 9, 1 uM): 109.07% | Toxicity Data, Average, Mean (cells (nuclei count); Average of Exp 1-3, n 9, 5 uM): 120.66% | Toxicity Data, Average, Mean (cells (nuclei count); Average of Exp 1-3, n 9, 10 uM): 120.18% | Toxicity Data, Average, Mean (cells (nuclei count); Average of Exp 1-3, n 9, 25 uM): 103.23% | Toxicity Data, Average, Mean (cells (nuclei count); Average of Exp 1-3, n 9, 50 uM): 86.33% | Relative cell count to DMSO controls, Average (for correlation analysis) (cells (nuclei count)): 107.89 | Infection Data, Average, Mean (SARS2; Average of Exp 1-3, n 9, 1 uM): 101.69% | Infection Data, Average, Mean (SARS2; Average of Exp 1-3, n 9, 5 uM): 91.50% | Infection Data, Average, Mean (SARS2; Average of Exp 1-3, n 9, 10 uM): 93.59% | Infection Data, Average, Mean (SARS2; Average of Exp 1-3, n 9, 25 uM): 67.45% | Infection Data, Average, Mean (SARS2; Average of Exp 1-3, n 9, 50 uM): 20.11% | Percentage Infection Relative to Appropriate DMSO Control with Avg Background Subtraction (SARS2; Exp 1 (SMW475), 1 uM): 107.33% and 128.47% and 95.32% | Percentage Infection Relative to Appropriate DMSO Control with Avg Background Subtraction (SARS2; Exp 1 (SMW475), 5 uM): 113.52% and 118.94% and 106.69% | Percentage Infection Relative to Appropriate DMSO Control with Avg Background Subtraction (SARS2; Exp 1 (SMW475), 10 uM): 137.00% and 134.73% and 122.43% | Percentage Infection Relative to Appropriate DMSO Control with Avg Background Subtraction (SARS2; Exp 1 (SMW475), 25 uM): 63.59% and 56.84% and 58.04% | Percentage Infection Relative to Appropriate DMSO Control with Avg Background Subtraction (SARS2; Exp 1 (SMW475), 50 uM): 15.03% and 16.97% and 13.28% | Percentage Infection Relative to Appropriate DMSO Control with Avg Background Subtraction (SARS2; Exp 2 (SMW477), 1 uM): 100.41% and 105.41% and 110.54% | Percentage Infection Relative to Appropriate DMSO Control with Avg Background Subtraction (SARS2; Exp 2 (SMW477), 5 uM): 92.70% and 91.91% and 94.77% | Percentage Infection Relative to Appropriate DMSO Control with Avg Background Subtraction (SARS2; Exp 2 (SMW477), 10 uM): 76.80% and 77.09% and 89.00% | Percentage Infection Relative to Appropriate DMSO Control with Avg Background Subtraction (SARS2; Exp 2 (SMW477), 25 uM): 62.89% and 48.77% and 73.05% | Percentage Infection Relative to Appropriate DMSO Control with Avg Background Subtraction (SARS2; Exp 2 (SMW477), 50 uM): 26.32% and 19.89% and 21.80% | Percentage Infection Relative to Appropriate DMSO Control with Avg Background Subtraction (SARS2; Exp 3 (SMW478), 1 uM): 87.75% and 89.34% and 90.68% | Percentage Infection Relative to Appropriate DMSO Control with Avg Background Subtraction (SARS2; Exp 3 (SMW478), 5 uM): 79.11% and 61.06% and 64.83% | Percentage Infection Relative to Appropriate DMSO Control with Avg Background Subtraction (SARS2; Exp 3 (SMW478), 10 uM): 89.71% and 51.99% and 63.55% | Percentage Infection Relative to Appropriate DMSO Control with Avg Background Subtraction (SARS2; Exp 3 (SMW478), 25 uM): 80.23% and 76.86% and 86.74% | Percentage Infection Relative to Appropriate DMSO Control with Avg Background Subtraction (SARS2; Exp 3 (SMW478), 50 uM): 18.61% and 22.87% and 26.23% | Percentage Inhibition Average 1 μM (SARS2): −1.69% | Screening data (Relative infection to DMSO controls) Average 1 μM (SARS2): 101.69 | Percentage Inhibition Average 5 μM (SARS2): 8.50% | Screening data (Relative infection to DMSO controls) Average 5 μM (SARS2): 91.50 | Percentage Inhibition Average 10 μM (SARS2): 6.41% | Screening data (Relative infection to DMSO controls) Average 10 μM (SARS2): 93.59 | Percentage Inhibition Average 25 μM (SARS2): 32.55% | Screening data (Relative infection to DMSO controls) Average 25 μM (SARS2): 67.45 | Percentage Inhibition Average 50 μM (SARS2): 79.89% | Screening data (Relative infection to DMSO controls) Average 50 μM (SARS2): 20.11 | Average (relative infection to DMSO over the 5 tested concentrations) (SARS2): 74.87
